Data as given in patent publication US4923802A, “Peptide substrates for the detection, characterization and purification of protein kinase C” (Immunex Corporation, priority 1985, dated 1990).
Entries after “also recorded” stand apart in the source; their conditions may differ. Ends that are not written are not given here.

Assays:
[1] = system: protein kinase C; assay: Direct assay for protein kinase C: phosphorylation of peptide substrate with (gamma 32P) ATP, phosphocellulose filter counting; type: biochemical, rat
Procedure: The peptide substrate of the present invention may be employed to assay for the presence of protein kinase C, for instance, during the above-outlined process of preparing the enzyme. The assay is based on the phosphorylation of the peptide substrate by protein kinase C. In the assay, the sample to be tested is mixed together with the peptide substrate, radiolabeled ATP, Ca^2+, phospholipid and diacylglycerol. The mixture is incubated for only a brief period to insure linearity of the reaction and then spotted onto phosphocellulose filter paper. The level of radioactivity on the filter is measured, for instance by liquid scintillation spectrometry. The level of radiation is indicative of the extent to which the substrate has been phosphorylated, which in turn is indicative of the amount of protein kinase C present in the sample being assayed. As can be appreciated, by use of the peptide substrate for the present invention, the presence of protein kinase C may be conveniently and rapidly assayed.
Protein kinase C was prepared from the brains of eight rats each having a weight of from 150 to 200 grams. The rats are sacrificed by cervical dislocation. The brains of the rats are removed and placed in eight volumes of ice-cold buffer A (40 ml), composed of the following: 20 mM 4-(2-hydroxyethyl)-1-piperazineethanesulfonic acid ("HEPES"), pH 7.5; 0.3 M sucrose; 2 mM ethyl-enediaminetetracetic acid ("EDTA"); 10 mM ethylene glycol bis(B -aminoethylether)-N, N, N', N'-tetraacetic acid ("EGTA"); 2 mM dithiothreitol ("DDT"); 1 mM phenylmethylsulfonyl; 10 ug/ml pepstatin A; 10 ug/ml soybean tripsyn inhibitor; 10 ug/ml leupeptin; and 10 uM E-64 (Peninsula Labs). E 64 is an inhibitor of CA^2+ -activated proteases. The brains are homogenized with 5 strokes of teflon-glass homogenizer and centrifuged for one hour at 100,000×g in a Ti 75 rotor. The resulting supernatant is saved and adjusted to a conductivity of 0.7-0.9 mmho. […]

[2] = system: protein kinase C; conditions: cited from earlier work

| reaction rate (rate of phosphorylation) ([1]; peptide concentration 1 mM) [pmole PO4 /min] | Substance | Km (in words) ([1]; protein kinase C, no saturation at 3 mM) | saturation of protein kinase C with substrate ([1]; up to 3 mM peptide) | rate of reaction ([2]; peptide concentration 450 μM) [pmole PO4 /min] | Km ([2]; protein kinase C, O'Brian et al., read-out: Km of the reaction) [µM] |
| --- | --- | --- | --- | --- | --- |
| 20 | LRRASLG [Kemptide, Leu-Arg-Arg-Ala-Ser-Leu-Gly] | so high that it could not be determined; also recorded: too high to be determined | not saturated; also recorded: will not saturate | – | – |
| – | RRKASGPPV | – | – | 8 | 130 |
